Source: patent publication US6689773B2, “Uracil substituted phenyl sulfamoyl carboxamides” (BASF Aktiengesellschaft, priority 2000, dated 2004)

What was measured:
Format in all cases: in vivo
[1] = system: TRZAW, Winter wheat, Tritium Aestivum, L. (Winter); test: Postemergence herbicidal evaluation (Example 147); conditions: rating scale 0-9, two to three weeks after treatment
Protocol: (§1) Seedling plants were grown in jiffy flats for about two weeks. The test compounds were dispersed in 80/20 acetone/water mixtures containing 1.0% SUN-IT®II, a methylated seed oil, in sufficient quantities to provide the equivalent of about 0.016 to 0.032 kg per hectare of active compound when applied to the plants through a spray nozzle operating at 40 psi for a predetermined time. After spraying, the plants were placed on greenhouse benches and were cared for in accordance with conventional greenhouse procedures. Approximately two to three weeks after treatment, the seedling plants were examined and rated according to the rating scale (0-9) set forth below. Where more than one test is involved for a given compound, the data are averaged. [table] The scale is based upon a visual observation of plant stand, vigor, malformation, size, chlorosis and overall plant appearance as compared with a control. Plant species employed in these evaluations are reported by header abbreviation, common name and scientific name. [table]

[2] = system: DIGSA, Crabgrass, (Hairy) L, Digitaria sanguinalis, (L)Scop; test: Postemergence herbicidal evaluation (Example 147); conditions: rating scale 0-9, two to three weeks after treatment
Protocol: as §1

[3] = system: XANST, Cocklebur, Xanthium strumariam; test: Postemergence herbicidal evaluation (Example 147); conditions: rating scale 0-9, two to three weeks after treatment
Protocol: as §1

[4] = system: ALOMY, Blackgrass, Alopecurus myosuroides; test: Postemergence herbicidal evaluation (Example 147); conditions: rating scale 0-9, two to three weeks after treatment
Protocol: as §1

[5] = system: GLXMA, Soybean, Glycine max, (L.) Merr.; test: Postemergence herbicidal evaluation (Example 147); conditions: rating scale 0-9, two to three weeks after treatment
Protocol: as §1

[6] = system: IPOHE, Morningglory, Ivyleaf, Ipomoea hederacea, (L)Jacq.; test: Postemergence herbicidal evaluation (Example 147); conditions: rating scale 0-9, two to three weeks after treatment
Protocol: as §1

[7] = system: CHEAL, Lambsquarters, Chenopodium album, L. Common; test: Postemergence herbicidal evaluation (Example 147); conditions: rating scale 0-9, two to three weeks after treatment
Protocol: as §1

[8] = system: ZEAMX, Field corn, Zea mays L.; test: Postemergence herbicidal evaluation (Example 147); conditions: rating scale 0-9, two to three weeks after treatment
Protocol: as §1

[9] = system: SETVI, Green foxtail, Setaria viridis, (L.)Beau; test: Postemergence herbicidal evaluation (Example 147); conditions: rating scale 0-9, two to three weeks after treatment
Protocol: as §1

[10] = system: AMBEL, Ragweed, Common, Ambrosia artemiisifolia, L.; test: Postemergence herbicidal evaluation (Example 147); conditions: rating scale 0-9, two to three weeks after treatment
Protocol: as §1

[11] = system: ECHCG, Barnyardgrass, Echinochloa crusgalli, (L.)Beau; test: Postemergence herbicidal evaluation (Example 147); conditions: rating scale 0-9, two to three weeks after treatment
Protocol: as §1

[12] = system: ABUTH, Velvetleaf, Abutilon theophrasti, Medic.; test: Postemergence herbicidal evaluation (Example 147); conditions: rating scale 0-9, two to three weeks after treatment
Protocol: as §1

[13] = system: TRZAW, Winter wheat, Tritium Aestivum, L. (Winter); test: Preemergence herbicidal evaluation (Example 148); conditions: rating scale 0-9, two to four weeks after treatment
Protocol: (§2) The scale is based upon a visual observation of plant stand, vigor, malformation, size, chlorosis and overall plant appearance as compared with a control.
(§3) The herbicidal activity of the compounds of the present invention was evaluated by the following tests wherein the seeds of a variety of monocotyledonous and dicotyledonous plants were separately mixed with potting soil and planted on top of approximately one inch of soil in separate pint cups. After planting, the cups were sprayed with the selected aqueous acetone solution containing test compound in sufficient quantity to provide the equivalent of about 0.125 to 0.250 kg per hectare of test compound per cup. The treated cups were then placed on greenhouse benches, watered and cared for in accordance with conventional greenhouse procedures. From two to four weeks after treatment, the tests were terminated and each cup was examined and rated according to the rating system provided in Example 94. When more than one test was performed for a given compound, the data were averaged.

[14] = system: DIGSA, Crabgrass, (Hairy) L, Digitaria sanguinalis, (L)Scop; test: Preemergence herbicidal evaluation (Example 148); conditions: rating scale 0-9, two to four weeks after treatment
Protocol: as §2, §3

[15] = system: ALOMY, Blackgrass, Alopecurus myosuroides; test: Preemergence herbicidal evaluation (Example 148); conditions: rating scale 0-9, two to four weeks after treatment
Protocol: as §2, §3

[16] = system: GLXMA, Soybean, Glycine max, (L.) Merr.; test: Preemergence herbicidal evaluation (Example 148); conditions: rating scale 0-9, two to four weeks after treatment
Protocol: as §2, §3

[17] = system: IPOHE, Morningglory, Ivyleaf, Ipomoea hederacea, (L)Jacq.; test: Preemergence herbicidal evaluation (Example 148); conditions: rating scale 0-9, two to four weeks after treatment
Protocol: as §2, §3

[18] = system: CHEAL, Lambsquarters, Chenopodium album, L. Common; test: Preemergence herbicidal evaluation (Example 148); conditions: rating scale 0-9, two to four weeks after treatment
Protocol: as §2, §3

[19] = system: ZEAMX, Field corn, Zea mays L.; test: Preemergence herbicidal evaluation (Example 148); conditions: rating scale 0-9, two to four weeks after treatment
Protocol: as §2, §3

[20] = system: SETVI, Green foxtail, Setaria viridis, (L.)Beau; test: Preemergence herbicidal evaluation (Example 148); conditions: rating scale 0-9, two to four weeks after treatment
Protocol: as §2, §3

[21] = system: AMBEL, Ragweed, Common, Ambrosia artemiisifolia, L.; test: Preemergence herbicidal evaluation (Example 148); conditions: rating scale 0-9, two to four weeks after treatment
Protocol: as §2, §3

[22] = system: ECHCG, Barnyardgrass, Echinochloa crusgalli, (L.)Beau; test: Preemergence herbicidal evaluation (Example 148); conditions: rating scale 0-9, two to four weeks after treatment
Protocol: as §2, §3

[23] = system: ABUTH, Velvetleaf, Abutilon theophrasti, Medic.; test: Preemergence herbicidal evaluation (Example 148); conditions: rating scale 0-9, two to four weeks after treatment
Protocol: as §2, §3

CCCNS(=O)(=O)NC(=O)c1cc(-n2c(=O)cc(C(F)(F)F)n(C)c2=O)c(F)cc1Cl [Example 63]
1.0: Preemergence herbicidal rating GLXMA ([16]; rate 0.125 kg/ha)
5.0: Preemergence herbicidal rating GLXMA ([16]; rate 0.25 kg/ha)
2.0: Postemergence herbicidal rating ALMOY ([4]; rate 0.016 kg/ha) | Postemergence herbicidal rating ALMOY ([4]; rate 0.032 kg/ha)
0.0: Preemergence herbicidal rating TRZAW ([13]; rate 0.125 kg/ha) | Preemergence herbicidal rating TRZAW ([13]; rate 0.25 kg/ha) | Preemergence herbicidal rating ALMOY ([15]; rate 0.125 kg/ha) | Preemergence herbicidal rating ALMOY ([15]; rate 0.25 kg/ha) | Preemergence herbicidal rating ZEAMX ([19]; rate 0.125 kg/ha) | Preemergence herbicidal rating ZEAMX ([19]; rate 0.25 kg/ha)
7.0: Postemergence herbicidal rating TRZAW ([1]; rate 0.032 kg/ha) | Postemergence herbicidal rating CHEAL ([7]; rate 0.016 kg/ha) | Postemergence herbicidal rating ZEAMX ([8]; rate 0.016 kg/ha) | Postemergence herbicidal rating SETVI ([9]; rate 0.016 kg/ha)
3.0: Preemergence herbicidal rating DIGSA ([14]; rate 0.125 kg/ha)
6.0: Postemergence herbicidal rating TRZAW ([1]; rate 0.016 kg/ha) | Postemergence herbicidal rating ECHCG ([11]; rate 0.032 kg/ha)
9.0: Postemergence herbicidal rating XANST ([3]; rate 0.016 kg/ha) | Postemergence herbicidal rating XANST ([3]; rate 0.032 kg/ha) | Postemergence herbicidal rating IPOHE ([6]; rate 0.016 kg/ha) | Postemergence herbicidal rating IPOHE ([6]; rate 0.032 kg/ha) | Postemergence herbicidal rating CHEAL ([7]; rate 0.032 kg/ha) | Postemergence herbicidal rating SETVI ([9]; rate 0.032 kg/ha) | Postemergence herbicidal rating AMBEL ([10]; rate 0.016 kg/ha) | Postemergence herbicidal rating AMBEL ([10]; rate 0.032 kg/ha) | Postemergence herbicidal rating ABUTH ([12]; rate 0.016 kg/ha) | Postemergence herbicidal rating ABUTH ([12]; rate 0.032 kg/ha) | Preemergence herbicidal rating IPOHE ([17]; rate 0.125 kg/ha) | Preemergence herbicidal rating IPOHE ([17]; rate 0.25 kg/ha) | Preemergence herbicidal rating CHEAL ([18]; rate 0.125 kg/ha) | Preemergence herbicidal rating CHEAL ([18]; rate 0.25 kg/ha) | Preemergence herbicidal rating AMBEL ([21]; rate 0.125 kg/ha) | Preemergence herbicidal rating AMBEL ([21]; rate 0.25 kg/ha) | Preemergence herbicidal rating ECHCG ([22]; rate 0.25 kg/ha) | Preemergence herbicidal rating ABUTH ([23]; rate 0.125 kg/ha) | Preemergence herbicidal rating ABUTH ([23]; rate 0.25 kg/ha)
8.0: Postemergence herbicidal rating GLXMA ([5]; rate 0.016 kg/ha) | Postemergence herbicidal rating GLXMA ([5]; rate 0.032 kg/ha) | Postemergence herbicidal rating ZEAMX ([8]; rate 0.032 kg/ha) | Preemergence herbicidal rating DIGSA ([14]; rate 0.25 kg/ha) | Preemergence herbicidal rating SETVI ([20]; rate 0.25 kg/ha)
4.0: Postemergence herbicidal rating DIGSA ([2]; rate 0.016 kg/ha) | Postemergence herbicidal rating DIGSA ([2]; rate 0.032 kg/ha) | Postemergence herbicidal rating ECHCG ([11]; rate 0.016 kg/ha) | Preemergence herbicidal rating SETVI ([20]; rate 0.125 kg/ha) | Preemergence herbicidal rating ECHCG ([22]; rate 0.125 kg/ha)

Cn1c(C(F)(F)F)cc(=O)n(-c2cc(C(=O)NS(=O)(=O)NC(C)(C)C)c(Cl)cc2F)c1=O [Example 65]
6.0: Postemergence herbicidal rating DIGSA ([2]; rate 0.016 kg/ha) | Preemergence herbicidal rating SETVI ([20]; rate 0.25 kg/ha)
2.0: Postemergence herbicidal rating ALMOY ([4]; rate 0.016 kg/ha)
5.5: Postemergence herbicidal rating TRZAW ([1]; rate 0.016 kg/ha)
9.0: Postemergence herbicidal rating XANST ([3]; rate 0.016 kg/ha) | Postemergence herbicidal rating XANST ([3]; rate 0.032 kg/ha) | Postemergence herbicidal rating IPOHE ([6]; rate 0.016 kg/ha) | Postemergence herbicidal rating IPOHE ([6]; rate 0.032 kg/ha) | Postemergence herbicidal rating CHEAL ([7]; rate 0.032 kg/ha) | Postemergence herbicidal rating AMBEL ([10]; rate 0.016 kg/ha) | Postemergence herbicidal rating AMBEL ([10]; rate 0.032 kg/ha) | Postemergence herbicidal rating ECHCG ([11]; rate 0.032 kg/ha) | Postemergence herbicidal rating ABUTH ([12]; rate 0.016 kg/ha) | Postemergence herbicidal rating ABUTH ([12]; rate 0.032 kg/ha) | Preemergence herbicidal rating DIGSA ([14]; rate 0.25 kg/ha) | Preemergence herbicidal rating IPOHE ([17]; rate 0.125 kg/ha) | Preemergence herbicidal rating IPOHE ([17]; rate 0.25 kg/ha) | Preemergence herbicidal rating CHEAL ([18]; rate 0.125 kg/ha) | Preemergence herbicidal rating CHEAL ([18]; rate 0.25 kg/ha) | Preemergence herbicidal rating AMBEL ([21]; rate 0.125 kg/ha) | Preemergence herbicidal rating AMBEL ([21]; rate 0.25 kg/ha) | Preemergence herbicidal rating ECHCG ([22]; rate 0.25 kg/ha) | Preemergence herbicidal rating ABUTH ([23]; rate 0.125 kg/ha) | Preemergence herbicidal rating ABUTH ([23]; rate 0.25 kg/ha)
1.0: Preemergence herbicidal rating TRZAW ([13]; rate 0.125 kg/ha) | Preemergence herbicidal rating TRZAW ([13]; rate 0.25 kg/ha) | Preemergence herbicidal rating ZEAMX ([19]; rate 0.25 kg/ha)
6.5: Postemergence herbicidal rating TRZAW ([1]; rate 0.032 kg/ha)
8.5: Postemergence herbicidal rating GLXMA ([5]; rate 0.032 kg/ha)
7.0: Preemergence herbicidal rating DIGSA ([14]; rate 0.125 kg/ha)
3.0: Postemergence herbicidal rating ALMOY ([4]; rate 0.032 kg/ha) | Preemergence herbicidal rating SETVI ([20]; rate 0.125 kg/ha)
0.0: Preemergence herbicidal rating ALMOY ([15]; rate 0.125 kg/ha) | Preemergence herbicidal rating ALMOY ([15]; rate 0.25 kg/ha) | Preemergence herbicidal rating ZEAMX ([19]; rate 0.125 kg/ha)
8.0: Postemergence herbicidal rating DIGSA ([2]; rate 0.032 kg/ha) | Postemergence herbicidal rating GLXMA ([5]; rate 0.016 kg/ha) | Postemergence herbicidal rating CHEAL ([7]; rate 0.016 kg/ha) | Postemergence herbicidal rating ZEAMX ([8]; rate 0.032 kg/ha) | Postemergence herbicidal rating SETVI ([9]; rate 0.016 kg/ha) | Postemergence herbicidal rating SETVI ([9]; rate 0.032 kg/ha) | Postemergence herbicidal rating ECHCG ([11]; rate 0.016 kg/ha) | Preemergence herbicidal rating ECHCG ([22]; rate 0.125 kg/ha)
7.5: Postemergence herbicidal rating ZEAMX ([8]; rate 0.016 kg/ha)
